In patent EP4707393A1, “DOUBLE-STRANDED SIRNA, CONJUGATE THEREOF AND USE THEREOF” (CMS Research & Development Pte. Ltd., priority 2023, dated 2024):

Tests used:
[1] = system: human LPA gene (Genbank number: NM_005577.4); assay: Inhibitory activity against LPA mRNA, psiCHECK-2 dual-luciferase reporter vector in Huh7 cells; type: cell-based; details: Huh7 cells transfected with LPA_psiCHECK-2 plasmid, RNAiMAX transfection
Outline: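 Huh7 cells transfected with psiCHECK-2 carrying human LPA, then treated next day with compounds (3 concentrations) delivered by RNAiMAX. Dual-Glo readout of firefly and Renilla luciferase per well. Percent inhibition calculated from the reporter ratio relative to the RNAiMAX control.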

[2] = system: LPA mRNA; assay: In vivo efficacy in LPA-HDI mouse model (liver LPA mRNA); set-up: species or system BALB/c mouse; details: 3 mg/kg single subcutaneous injection, Day 14, relative to PBS blank group, 4 mice per group
Procedure: The knockdown effect of the test double-stranded siRNA conjugate on the target gene LPA upon entry into the mouse is evaluated by rapid high-pressure injection of the physiological saline containing recombinant plasmid pcDNA-LPA carrying the target gene via the tail vein.
pcDNA-LPA plasmid, BALB/c mouse, PBS (phosphate buffer), and conjugates of the present invention.
Six-week-old female BALB/c mice were ordered and acclimated/quarantined for three days upon arrival in the animal room.
On Day 0, the mice were randomly grouped based on body weight data. After grouping, all mice were given a single administration via subcutaneous injection, with a dose volume of 10 mL/kg. Mice in Group 1 received PBS; mice in the other groups received the conjugates (dissolved in PBS).
On Day 13 post-administration, all mice were injected with normal saline containing the pcDNA-LPA plasmid via the tail vein within 5 seconds. The injection volume (mL) = mouse body weight (g) × 8%. The amount of plasmid injected per mouse was 10 µg.
On Day 14 post-administration, all groups of mice were euthanized by CO2 inhalation, and 2 liver samples were collected from each mouse. Liver samples were treated overnight with RNAlater at 4 °C, then RNAlater was removed, and stored at -80 °C for detection of LPA gene expression levels.

[3] = system: hPBMCs; assay: Immunogenicity test in hPBMCs (IL-6 and TNF-α ELISA of supernatant); type: cell-based, human; details: donor 1 hPBMCs, 18-20 h
Procedure: 1 Experimental material • 1.1 Double-stranded siRNA conjugates • 1.2 hPBMCs, purchased from Shanghai Sailybio Medical Co., LTD. • 1.3 Main reagents: Penicillin-Streptomycin (Cat. No.: 15140122), RNase-free water (Cat. No.: AM9938), IL-6 ELISA kit (Cat. No.: 555220), TNF-α ELISA kit (Cat. No.: 555212), LPS (Cat. No.: L2630), etc. 2 Experimental method • 2.1 Compound Preparation: Compounds were prepared as stock solutions with enzyme-free water. Compound weight = powder weight * purity. The concentration of prepared solutions was 900 µg/mL, followed by three-fold serial dilution with enzyme-free water. Each concentration was diluted 10-fold with 1640 medium, resulting in a final enzyme-free water content of 5.0%. • 2.2 Experimental procedure: • 2.2.1 PBMC cells were resuscitated one day in advance and incubated overnight in 1640 complete medium. • 2.2.2 On the day of the experiment, PBMC cells were centrifuged at 300 × g for 8 minutes, and the cell density was adjusted to 1.6 × 10^6 mL with 1640 complete medium. The cells were then added to a 96-well plate, 125 µL per well, and incubated in a 37 °C, 5% CO2 incubator for 15 minutes. • 2.2.3 The diluted test compounds were added to the 96-well plate according to the plate map, all in duplicate, 125 µL for each well; the positive control group and the blank group were added with an equal volume of 1640 complete culture medium containing the same amount of enzyme-free water. • 2.2.4 After gently shaking, the well plates were incubated in an incubator at 37 °C for 18-20 h. The supernatant was collected by centrifugation, and secretions of TNF-α and IL-6 were detected by ELISA. • 2.2.5 Data were analyzed using GraphPad Prism 8 software. 3 Experimental results Table 10. IL-6 and TNF-α levels in the cell supernatant of donor 1 hPBMCs treated with different doses of test compounds

Substance	EC50 [1] [nM]	% Downregulation of LPA mRNA [2] [%]	IL-6 ([3]; 5 µg/mL) [pg/mL]	TNF alpha ([3]; 5 µg/mL) [pg/mL]	IL-6 ([3]; 15 µg/mL) [pg/mL]	TNF alpha ([3]; 15 µg/mL) [pg/mL]	IL-6 ([3]; 45 µg/mL) [pg/mL]	TNF alpha ([3]; 45 µg/mL) [pg/mL]
Z27: siRNA conjugate: sense SEQ ID NO:43, ligand D18 at 3' end of sense strand, antisense SEQ ID NO:66 (sense CAGCCCCTTATTGTTANACGA; antisense TCTCGTATNACAATAAGGGGCTG; ligand D18 at sense 3' end; listed as RNA; modified_base 1: mod_base = OTHER; note = 2'-O-methylcytidine; modified_base 2: mod_base = OTHER; note = 2'-O-methyladenosine; modified_base 3: mod_base = OTHER; note = 2'-O-methylguanosine; modified_base 4..7: mod_base = OTHER; note = 2'-O-me; note = 2'-O-methyluridine; modified_base 4: mod_base = OTHER; note = 2'-fluorocytidine; modified_base 5: mod_base = OTHER; note = 2'-O-methylg)	0.96	92.2						
Z32: siRNA conjugate: sense SEQ ID NO:47, ligand D18 at 3' end of sense strand, antisense SEQ ID NO:71 (sense GCCCCTTATTGTTANACGA; antisense TCGTATNACAATAAGGGGCTGT; ligand D18 at sense 3' end; listed as RNA; modified_base 1: mod_base = OTHER; note = 2'-O-methylguanosine; modified_base 2: mod_base = OTHER; note = 2'-O-methylcytidine; modified_base 3..5: mod_base = OTHER; modified_base 6: mod_base = OTHER; note = 2'-O-met; note = E-type vinylphosphonate-modified 2'-O-methyluridine; note = 2'-fluorocytidine; modified_base 3: mod_base = OTHER; modified_base 4: mo)	0.21	86.4						
Z33: siRNA conjugate: sense SEQ ID NO:47, ligand D18 at 3' end of sense strand, antisense SEQ ID NO:72 (sense GCCCCTTATTGTTANACGA; antisense TCGTATNACAATAAGGGGCTGT; ligand D18 at sense 3' end; listed as RNA; modified_base 1: mod_base = OTHER; note = 2'-O-methylguanosine; modified_base 2: mod_base = OTHER; note = 2'-O-methylcytidine; modified_base 3..5: mod_base = OTHER; modified_base 6: mod_base = OTHER; note = 2'-O-met; note = E-type vinylphosphonate-modified 2'-O-methyluridine; note = 2'-fluorocytidine; modified_base 3: mod_base = OTHER; modified_base 4: mo)		79.2						
Z34: siRNA conjugate: sense SEQ ID NO:48, ligand D18 at 3' end of sense strand, antisense SEQ ID NO:73 (sense CAGCCCCTTATTGTTANACGA; antisense TCGTATNACAATAAGGGGCNGTT; ligand D18 at sense 3' end; listed as RNA; modified_base 1: mod_base = OTHER; note = 2'-O-methylcytidine; modified_base 2: mod_base = OTHER; note = 2'-O-methyladenosine; modified_base 3: mod_base = OTHER; note = 2'-O-methylguanosine; modified_base 4..6: mod_base = OTHER; note = 2'-O-me; note = E-type vinylphosphonate-modified 2'-O-methyluridine; note = 2'-fluorocytidine; modified_base 4: mo)	3.05	78.1						
Z35: siRNA conjugate: sense SEQ ID NO:49, ligand D18 at 3' end of sense strand, antisense SEQ ID NO:74 (sense CAGCCCCTTATTGTTATACGA; antisense TCGTATNACAATAAGGGGCNGTT; ligand D18 at sense 3' end; listed as RNA; modified_base 1: mod_base = OTHER; note = 2'-O-methylcytidine; modified_base 2: mod_base = OTHER; note = 2'-O-methyladenosine; modified_base 3: mod_base = OTHER; note = 2'-O-methylguanosine; modified_base 4..7: mod_base = OTHER; note = 2'-O-me; note = E-type vinylphosphonate-modified 2'-O-methyluridine; note = 2'-deoxycytidine; modified_base 4: mod)	0.14	92.3						
Z40: siRNA conjugate: sense SEQ ID NO:52, ligand D01 at 3' end of sense strand, antisense SEQ ID NO:78 (sense CCTGCCAAGCTTGGTCNTCTA; antisense TCTAGATGNCCAAGCTTGGCNGG; ligand D01 at sense 3' end; listed as RNA; modified_base 1..2: mod_base = OTHER; note = 2'-O-methylcytidine; modified_base 3: mod_base = OTHER; note = 2'-O-methyluridine; modified_base 4: mod_base = OTHER; note = 2'-O-methylguanosine; modified_base 5..6: mod_base = OTHER; note = 2'-O-m; modified_base 1: mod_base = OTHER; note = 2'-fluoroadenosine; modified_base 5: mod_base = OTHER; note = 2'-O-methyl)	0.07	59.0	1333.8	35.9	1266.6	32.3	1343.4	32.7
Z43: siRNA conjugate: sense SEQ ID NO:49, ligand D01 at 3' end of sense strand, antisense SEQ ID NO:81 (sense CAGCCCCTTATTGTTATACGA; antisense NCGTATNACAATAAGGGGCNGTT; ligand D01 at sense 3' end; listed as RNA; modified_base 1: mod_base = OTHER; note = 2'-O-methylcytidine; modified_base 2: mod_base = OTHER; note = 2'-O-methyladenosine; modified_base 3: mod_base = OTHER; note = 2'-O-methylguanosine; modified_base 4..7: mod_base = OTHER; note = 2'-O-me; note = n is B30; note = 2'-deoxycytidine; modified_base 4: mod_base = OTHER; note = 2'-O-methyluridine; m)	0.09	84.5	1270.9	35.4	1339.1	36.9	1314.4	32.2
